The values below come from PubChem BioAssay AID1996.

What is called kinetic solubility is the concentration staying in solution when a stock, usually in DMSO, is diluted into the medium.

≈ marks a conversion by molar mass, not a printed value.

The conditions of the data set: buffer; pH 7.4; 200.0 µM.
Molecule `CN(C)c1ccc(NC(=O)Nc2csc3ccccc23)cc1` yielded a kinetic solubility of 0.7 µg/mL (≈ 2.25 µM). The molecule `CCOC(=O)N1CCN(C(=O)Cc2ccccc2OC)CC1` had a kinetic solubility greater than 46 µg/mL. As for `CSc1nccc(-c2sc(SC)c(C#N)c2-c2ccccc2)n1`, the figure is less than 0.3 µg/mL. Then `CC1(NC(=O)Nc2ccccc2)CCS(=O)(=O)C1` (stereo not drawn), with greater than 40.2 µg/mL; and `CCN1CCN(CCC(=O)Nc2ccc(C)cc2)CC1.Cl`, with greater than 46.8 µg/mL; and `CCn1cc(C2=NC(CCSC)CO2)c2ccccc21` (stereo not drawn), with 34 µg/mL (≈ 118 µM). Then `Cc1ccc(NC(=S)N2CCCC(c3nc4ccccc4[nH]3)C2)cc1` (stereo not drawn), with 2.3 µg/mL (≈ 6.56 µM). The molecule `S=C(NC1CC1)N1CCc2ccccc2C1` gave a kinetic solubility greater than 34.9 µg/mL. Then `COc1ccc2nc(SCC(=O)NCCc3ccccc3)[nH]c2c1`, with greater than 51.2 µg/mL. Molecule `CCOc1ccc(N/C(C)=C/C(=O)c2ccc3c(c2)OCCO3)cc1` had a kinetic solubility of 0.8 µg/mL (≈ 2.36 µM). Then `CC(=O)NC(CC(=O)OCC(=O)c1cc(C)ccc1C)c1ccccc1` (stereo not drawn), with greater than 53 µg/mL; and `COc1ccc(S(=O)(=O)N2CCN(CCc3ccccc3)CC2)cc1`, with 1.5 µg/mL (≈ 4.16 µM); and `Cc1ccccc1OCC(=O)Nc1nc(-c2ccncc2)cs1`, with 4.9 µg/mL (≈ 15.1 µM). As for `CNC(=O)COC(=O)/C=C/c1nc2ccccc2s1`, the figure is greater than 41.4 µg/mL. As to `O=C(COC(=O)C1CC(=O)N(Cc2ccco2)C1)Nc1nc(-c2ccc(F)cc2)cs1` (stereo not drawn), the solubility (kinetic) was found to be 16.9 µg/mL (≈ 38.1 µM). Then `O=C1NC(=Nc2ccc(F)cc2)SC1Cc1ccc(F)cc1` (stereo not drawn), with 1 µg/mL (≈ 3.14 µM). As for `NC(=O)C1CCN(CC(O)COCc2ccccc2Cl)CC1` (stereo not drawn), the figure is greater than 49 µg/mL; as for `CC1(C(=O)NCCOc2ccccc2Cl)CC1(Cl)Cl` (stereo not drawn), greater than 48.4 µg/mL.

`O=S(=O)(c1ccc(S(=O)(=O)N2CCCC2)cc1)N1CCCCC1` showed a solubility (kinetic) of less than 0.4 µg/mL.

As to `O=C(Nc1ccc([N+](=O)[O-])cn1)c1cccnc1`, the kinetic solubility worked out at 7.2 µg/mL (≈ 29.5 µM). As for `Cc1cc(C(=O)Nc2cccc3ccccc23)co1`, the figure is 33 µg/mL (≈ 131 µM). Turning to `Cc1ccccc1C(=O)N1c2ccccc2OCC1C(C)(C)C` (stereo not drawn), the solubility (kinetic) was less than 0.7 µg/mL. Then `CCOC(=O)C1CCN(C(=O)/C=C/c2ccc3c(c2)OCO3)CC1`, with greater than 49.7 µg/mL; and `S=c1nc(-c2ccc(Br)cc2)[nH]c2ccccc12`, with 0.7 µg/mL (≈ 2.21 µM).

In turn, `COc1ccccc1CC(=O)N1CCN(c2cccc(Cl)c2)CC1` registered a solubility (kinetic) of 22 µg/mL (≈ 63.8 µM). Then `COC(=O)c1sc(NC(=O)c2c(C)noc2C)nc1C`, with greater than 44.3 µg/mL; and `CSc1ccc(NC(=O)NCc2ccccc2)cc1`, with 1.4 µg/mL (≈ 5.14 µM). Consider `Cc1ccc(C)c(NC(=O)c2cc([N+](=O)[O-])cc([N+](=O)[O-])c2)c1`, for which the kinetic solubility was determined as 0.6 µg/mL (≈ 1.9 µM). As for `CN(c1ccc(C(=O)N2CCOCC2)cc1)S(=O)(=O)c1cccs1`, the figure is 46.9 µg/mL (≈ 128 µM); as for `N#CCNC(=O)C1c2ccccc2Oc2ccccc21`, 4.1 µg/mL (≈ 15.5 µM). As for `CCOC(=O)c1ccc2[nH]c3c(c2c1)CCCC3O` (stereo not drawn), the figure is greater than 38.9 µg/mL; as for `COc1cc(C(=O)N2C(=O)CCC2=O)cc(OC)c1OC`, 35.4 µg/mL (≈ 121 µM). Then `Cc1cc(Cl)c2oc(C(=O)N3CCC(O)(c4ccccc4)CC3)c(C)c2c1`, with 2.2 µg/mL (≈ 5.73 µM).

Molecule `COc1ccc(C(=O)N2CCN(c3ccc(C(C)=O)cc3)CC2)cc1S(=O)(=O)N1CCCC1` came in with a solubility (kinetic) greater than 70.7 µg/mL. As for `CCN(CC(=O)NC1CC1)S(=O)(=O)c1ccccc1`, the figure is greater than 42.4 µg/mL; as for `O=C(NC(=O)C(F)(F)F)Nc1ccc(S(=O)(=O)Nc2nccs2)cc1`, greater than 59.2 µg/mL; as for `CC1(C)Cc2ccccc2-c2nc(NCCCO)[nH]c(=O)c21`, 39.5 µg/mL (≈ 132 µM). As for `O=C(NC1CC1)c1cc(Cl)nc2ccccc12`, the figure is greater than 37 µg/mL; as for `O=C(NCc1cc2ccccc2[nH]1)c1ccccc1F`, greater than 40.2 µg/mL. Then `O=C(C1CCCC1)N1CCCC(Nc2ccccc2)C1` (stereo not drawn), with 35.9 µg/mL (≈ 132 µM).

In turn, `COc1cc(C)ccc1OCC(=O)OCC(=O)c1[nH]c(C)c(C(C)=O)c1C` displayed a solubility (kinetic) of 13.5 µg/mL (≈ 36.2 µM). Then `Cc1ccc(C2(c3noc(CN(C)CCO)n3)CCCC2)cc1`, with 39.5 µg/mL (≈ 125 µM). Then `COC(=O)c1cc(-n2cccc2)ccc1N1CCOCC1`, with 35.6 µg/mL (≈ 124 µM); and `CC(=O)NCc1cc(-c2ccc(Cl)cc2)no1`, with 37.2 µg/mL (≈ 148 µM). Then `CCOC(=O)CN1C(=O)CC(c2ccc([N+](=O)[O-])cc2)C1=O` (stereo not drawn), with greater than 45.9 µg/mL; and `Cc1ccc(C)c(NC(=O)Cn2cc(C(=O)C3CC3)c3ccccc32)c1`, with less than 0.4 µg/mL. In turn, `Cc1ccc(OCCn2cc(/C=C/C(=O)O)c3ccccc32)cc1` displayed a kinetic solubility greater than 48.2 µg/mL. As for `Cc1cccc(C(=O)N[C@H](C(=O)Nc2ccc3c(c2)OCO3)C(C)C)c1`, the figure is 5.5 µg/mL (≈ 15.5 µM); as for `C[C@H](NC(=O)c1ccco1)C(=O)OCC(=O)N1CC(=O)Nc2ccccc21`, greater than 55.7 µg/mL.

As for `CSc1ccccc1NC(=O)c1cc(-c2ccco2)on1`, the kinetic solubility turned out to be 1.1 µg/mL (≈ 3.66 µM). Then `Cc1ccccc1OCCn1cc(C=O)c2ccccc21`, with less than 0.6 µg/mL; and `CC(=O)c1cccn1S(=O)(=O)c1ccccc1`, with 36.9 µg/mL (≈ 148 µM); and `O=C(COC(=O)c1ccccc1OCc1ccccc1Cl)NCC1CCCO1` (stereo not drawn), with greater than 60.6 µg/mL. The molecule `CSc1ncccc1C(=O)Nc1nc(C(C)(C)C)cs1` registered a kinetic solubility of 37.6 µg/mL (≈ 122 µM). Then `COc1ccc(N(CC(=O)N2CCOCC2)S(C)(=O)=O)cc1Cl`, with greater than 54.4 µg/mL; and `Cc1ccc(C)c(S(=O)(=O)NC2CCSC2=O)c1` (stereo not drawn), with greater than 42.8 µg/mL; and `COc1cc(S(=O)(=O)n2cnc3ccccc32)ccc1Br`, with greater than 55.1 µg/mL.

Regarding `O=C(NCC1CCCO1)c1ccc(Br)s1` (stereo not drawn), the kinetic solubility turned out to be 42.4 µg/mL (≈ 146 µM). As for `CCN(CCO)c1ccc(N=Cc2c(O)n(C)c(=S)[nH]c2=O)cc1`, the figure is 3.2 µg/mL (≈ 9.18 µM); as for `COc1ccc(C(=O)NCC2CCCCC2)cc1S(=O)(=O)N1CCOCC1`, greater than 59.5 µg/mL. As for `CN1CCN(C(=S)NC(=O)c2cccc([N+](=O)[O-])c2)CC1`, the figure is greater than 46.3 µg/mL; as for `O=C(O)CCc1nc2cc(Cl)ccc2n(Cc2ccccc2)c1=O`, greater than 51.4 µg/mL; as for `O=C(NCc1ccco1)Nc1ccc([N+](=O)[O-])cc1`, 16.5 µg/mL (≈ 63.2 µM).

Turning to `NS(=O)(=O)c1ccc(NC(=O)C(=O)NCCC(=O)O)cc1`, the solubility (kinetic) was greater than 47.3 µg/mL. Turning to `CC(=O)c1cnc(Nc2cccc(C)c2)s1`, the kinetic solubility worked out at 13.7 µg/mL (≈ 59 µM). The molecule `CCN(C(=O)C(=O)c1c[nH]c2ccccc12)c1ccccc1` yielded a solubility (kinetic) greater than 43.9 µg/mL.

The molecule `Cc1ccc(NC(=S)NCc2ccc(F)cc2)c(C)c1` came in with a solubility (kinetic) of 36.2 µg/mL (≈ 126 µM). As for `Cc1cccc(-c2noc(CN(C)C(=O)COc3ccccc3)n2)c1`, the figure is 36.9 µg/mL (≈ 109 µM); as for `Cc1ccc(NC(=O)CCN2C(=O)c3ccccc3C2=O)cc1`, 8.9 µg/mL (≈ 28.9 µM); as for `COc1cc(C(=O)O)nc(OC)n1`, greater than 27.6 µg/mL. `COc1ccc(C(=O)C2CCN(C(=O)c3ccc(F)cc3)CC2)cc1` displayed a solubility (kinetic) of 50.6 µg/mL (≈ 148 µM). Then `Cc1ccc(S(=O)(=O)N2CCOCC2)cc1NC(=O)COC(=O)CCc1c[nH]c2ccccc12`, with 26.4 µg/mL (≈ 54.4 µM); and `COc1cc(NC(=O)NC2Cc3ccccc3C2)cc(OC)c1`, with less than 0.3 µg/mL.
